Source: ChEMBL document CHEMBL3352713, “A new class of salicylic acid derivatives for inhibiting YopH of Yersinia pestis” (Bioorg Med Chem, 2014)

What was measured:
[1] = Inhibition of Yersinia pestis YopH using […] as substrate by spectrophotometry
[2] = Selectivity for Yersinia pestis YopH over VHR (unknown origin) at 5 nM
[3] = Selectivity for Yersinia pestis YopH over PTP1B (unknown origin) at 5 nM
[4] = Selectivity for Yersinia pestis YopH over Cdc25A (unknown origin) at 5 nM
[5] = Selectivity for Yersinia pestis YopH over CD45 (unknown origin) at 5 nM
[6] = Selectivity for Yersinia pestis YopH over HePTP (unknown origin) at 5 nM
[7] = Selectivity for Yersinia pestis YopH over TCPTP (unknown origin) at 5 nM

SMILES | IC50 [1] [µM] | other results
O=C(CCCCNC(=O)c1ccc(-c2ccc(O)c(C(=O)O)c2)s1)Nc1nc2ccccc2s1 | > 20 | –
O=C(CCCCNC(=O)c1ccc(-c2ccc(O)c(C(=O)O)c2)s1)Nc1ccc(N2CCOCC2)cc1 | > 200 | –
O=C(CCNC(=O)c1ccc(-c2ccc(O)c(C(=O)O)c2)s1)Nc1nc(-c2ccccc2)cs1 | > 50 | –
O=C(CCCCNC(=O)c1cc(-c2ccc(O)c(C(=O)O)c2)cs1)Nc1nc(-c2ccccc2)cs1 | 44.2 | –
O=C(CCCCNC(=O)c1cc(-c2ccc(O)c(C(=O)O)c2)on1)Nc1nc(-c2ccccc2)cs1 | 23 | –
O=C(CCCCNC(=O)c1cc(-c2ccc(O)c(C(=O)O)c2)on1)Nc1ccc(N2CCOCC2)cc1 | 63 | –
O=C(CCCCNC(=O)c1ccc(-c2ccc(O)c(C(=O)O)c2)s1)NCc1ccccc1 | > 200 | –
O=C(CCCCNC(=O)c1ccc(-c2ccc(O)c(C(=O)O)c2)s1)Nc1nc(-c2ccccc2)cs1 | 11.1 | –
O=C(CCCCNC(=O)c1cc(-c2ccc(O)c(C(=O)O)c2)cs1)Nc1nc2ccccc2s1 | 39.5 | –
O=C(O)C1=CC(=C(c2ccc(O)c(C(=O)O)c2)c2ccc(O)c(C(=O)O)c2)C=CC1=O [AURINTRICARBOXYLIC ACID] | – | Selectivity ratio [2]: 6; Selectivity ratio [3]: 6; Selectivity ratio [4]: 6; Selectivity ratio [5]: 6; Selectivity ratio [6]: 6; Selectivity ratio [7]: 6; Ki [1]: 0.005 µM
